The target of the assay is T1, αvβ3 (vitronectin receptor) (Homo sapiens, UniProt P05106+P06756).
T1 construct: Human placenta or human platelet αvβ3 (0.1-0.3 mg/mL) in buffer T; from tissue; host or cells: human placenta or human platelets
Briefly: Solid-Phase [3H]-SK&F-107260 Binding to αvβ3. Conditions: human placenta or human platelet αvβ3; competition with 5.0 nM [3H]-SK&F-107260; Ki=IC50/(1+L/Kd). The method, then: 0.1-0.2 μg of αvβ3 was added per well. The plates were incubated overnight at 4° C. At the time of the experiment, the wells were washed once with buffer A and were incubated with 0.1 mL of 3.5% bovine serum albumin in the same buffer for 1 hr at room temperature. Following incubation the wells were aspirated completely and washed twice with 0.2 mL buffer A.
Compound were dissolved in 100% DMSO to give a 2 mM stock solution, which was diluted with binding buffer (15 mM Tris-HCl (pH 7.4), 100 mM NaCl, 1 mM CaCl2, 1 mM MnCl2, 1 mM MgCl2) to a final compound concentration of 100 μM. This solution is then diluted to the required final compound concentration.
The plates were incubated for 1 hr at room temperature. Following incubation the wells were aspirated completely and washed once with 0.2 mL of ice cold buffer A in a well-to-well fashion.

The values below come from patent US6495560B1, “Vitronectin receptor antagonist” (SmithKline Beecham Corporation, priority 1998, dated 2002).

Structures are written as SMILES.

T1 sequence (P06756 31-889 limits assumed): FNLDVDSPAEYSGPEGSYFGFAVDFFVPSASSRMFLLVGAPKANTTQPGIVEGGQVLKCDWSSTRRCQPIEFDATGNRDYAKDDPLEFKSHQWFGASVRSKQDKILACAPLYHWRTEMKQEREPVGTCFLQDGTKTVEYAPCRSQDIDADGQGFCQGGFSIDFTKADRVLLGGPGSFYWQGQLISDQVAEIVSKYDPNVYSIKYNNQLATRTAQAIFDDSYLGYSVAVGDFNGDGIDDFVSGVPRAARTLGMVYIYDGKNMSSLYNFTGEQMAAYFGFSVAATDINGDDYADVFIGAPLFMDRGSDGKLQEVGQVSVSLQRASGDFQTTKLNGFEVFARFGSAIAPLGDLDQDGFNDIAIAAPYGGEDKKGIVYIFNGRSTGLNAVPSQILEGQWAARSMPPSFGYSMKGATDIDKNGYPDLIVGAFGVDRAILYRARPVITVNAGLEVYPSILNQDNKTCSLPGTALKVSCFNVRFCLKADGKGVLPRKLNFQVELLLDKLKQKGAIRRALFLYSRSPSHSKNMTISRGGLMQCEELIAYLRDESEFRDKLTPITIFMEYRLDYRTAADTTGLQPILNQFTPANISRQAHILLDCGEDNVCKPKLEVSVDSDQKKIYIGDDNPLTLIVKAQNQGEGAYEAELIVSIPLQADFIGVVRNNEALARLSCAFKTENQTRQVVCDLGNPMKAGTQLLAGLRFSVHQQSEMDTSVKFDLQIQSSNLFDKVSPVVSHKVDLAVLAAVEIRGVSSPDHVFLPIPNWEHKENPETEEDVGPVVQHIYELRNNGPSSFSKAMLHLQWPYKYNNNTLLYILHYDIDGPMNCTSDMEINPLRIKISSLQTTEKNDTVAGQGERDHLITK
T1 sequence (P06756 891-1048 partner limits assumed): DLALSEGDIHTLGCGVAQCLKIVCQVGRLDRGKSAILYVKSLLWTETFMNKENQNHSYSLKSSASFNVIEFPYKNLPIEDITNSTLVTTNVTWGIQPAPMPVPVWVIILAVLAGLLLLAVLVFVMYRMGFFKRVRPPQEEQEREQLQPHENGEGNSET
T1 sequence (P05106 27-788): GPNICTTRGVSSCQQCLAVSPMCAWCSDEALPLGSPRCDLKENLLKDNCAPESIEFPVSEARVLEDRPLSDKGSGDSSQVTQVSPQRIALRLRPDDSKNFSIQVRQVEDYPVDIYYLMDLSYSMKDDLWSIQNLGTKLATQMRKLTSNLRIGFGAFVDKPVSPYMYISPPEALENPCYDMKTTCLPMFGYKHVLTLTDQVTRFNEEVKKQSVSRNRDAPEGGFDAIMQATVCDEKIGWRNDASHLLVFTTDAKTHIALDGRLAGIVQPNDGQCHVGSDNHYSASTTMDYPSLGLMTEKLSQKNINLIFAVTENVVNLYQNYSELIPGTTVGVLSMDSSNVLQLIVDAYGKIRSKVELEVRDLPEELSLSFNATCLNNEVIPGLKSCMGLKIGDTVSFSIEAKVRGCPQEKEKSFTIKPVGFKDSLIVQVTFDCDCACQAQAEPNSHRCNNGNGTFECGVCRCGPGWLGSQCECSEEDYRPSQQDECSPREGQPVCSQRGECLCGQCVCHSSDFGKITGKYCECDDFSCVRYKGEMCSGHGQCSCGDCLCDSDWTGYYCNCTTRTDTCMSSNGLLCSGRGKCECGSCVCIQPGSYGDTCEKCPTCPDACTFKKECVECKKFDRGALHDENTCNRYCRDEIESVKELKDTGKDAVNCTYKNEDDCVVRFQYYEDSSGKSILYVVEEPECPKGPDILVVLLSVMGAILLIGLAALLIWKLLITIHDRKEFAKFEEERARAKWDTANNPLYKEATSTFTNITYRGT

In turn, `O=C(O)C[C@@H]1Cc2ccc(OCCc3ccc4c(n3)NCCC4)cc2Cc2ccccc21` [Example 1, (S)-10,11-dihydro-3-[2-(5,6,7,8-tetrahydro-1,8-naphthyridin-2-yl)-1-ethoxy]-5H-dibenzo[a,d]cycloheptene-10-acetic acid] displayed a Ki of roughly 1.7 nM.

Usually Ki stands for a measure of affinity in units of concentration, obtained from inhibition or displacement.
